Where two headings read alike, the source gives them in different places.
What was measured:
HRV 2 = format: cell-based, human rhinovirus; settings: HRV 2, HeLa cells, 72 hours after infection
HRV 14 [1] = assay: high-throughput cytopathic effect inhibitory assay (CPE), HeLa cells infected with HRV 14; format: cell-based, human rhinovirus; settings: HRV 14, HeLa cells, second series of experiments
MDCK cells = settings: dog
HRV 14 [2] = assay: residual infectiousness (TCID50/ml) by virus titration, HeLa cells infected with HRV 14; format: cell-based, human rhinovirus; settings: HRV 14, HeLa cells
HRV 14 [3] = assay: plaque reduction assay, HeLa cells infected with HRV 14; format: cell-based, human rhinovirus; settings: for Plaque reduction rel. inhibition: HRV 14, HeLa cells, M.O.I. 0.0004; for Rel. total inhibition: HRV 14, plaque reduction and residual infectiousness combined
influenza A virus = format: cell-based; settings: MDCK cells
[4] = dilution 1:2 of 0.003125% (W/V)
[5] = dilution 1:4 of 0.003125% (W/V)
[6] = dilution 1:8 of 0.003125% (W/V)
[7] = dilution 1:16 of 0.003125% (W/V)
[8] = dilution 1:32 of 0.003125% (W/V)

## Cc1cc(C(C)(C)C)c(O)c(C)c1CC1=NCCN1 [oxymetazoline]
HRV 2; [4]
  CPE inhibition: 40.5%
HRV 2; [5]
  CPE inhibition: 23.2%
HRV 14 [1]; [4]
  CPE inhibition: 50.5%
HRV 14 [1]; [5]
  CPE inhibition: 53.6%
HRV 14 [1]; [6]
  CPE inhibition: 37.5%
HRV 14 [1]; [7]
  CPE inhibition: 5.9%
MDCK cells
  active-ingredient concentration at which no effects which reduce the metabolism of the cells arise (non-cytotoxic concentration): 0.005 % (W/V)
HRV 14 [2]; [4]
  Residual infectiousness rel. inhibition: 33.33%
HRV 14 [2]; [5]
  Residual infectiousness rel. inhibition: 20.83%
HRV 14 [2]; [6]
  Residual infectiousness rel. inhibition: 18.75%
HRV 14 [2]; [7]
  Residual infectiousness rel. inhibition: 18.75%
HRV 14 [2]; [8]
  Residual infectiousness rel. inhibition: 12.50%
HRV 14 [3]; [4]
  Plaque reduction rel. inhibition: 44.26%
  Rel. total inhibition: 38.79
HRV 14 [3]; [5]
  Plaque reduction rel. inhibition: 32.98%
  Rel. total inhibition: 26.91
HRV 14 [3]; [6]
  Plaque reduction rel. inhibition: 25.74%
  Rel. total inhibition: 22.25
HRV 14 [3]; [7]
  Plaque reduction rel. inhibition: 17.66%
  Rel. total inhibition: 18.20
HRV 14 [3]; [8]
  Plaque reduction rel. inhibition: 14.26%
  Rel. total inhibition: 13.38
Influenza A virus; dilution 1:2 of 0.005% (W/V)
  CPE inhibition: 52.8%
Influenza A virus; dilution 1:4 of 0.005% (W/V)
  CPE inhibition: 35.5%
Influenza A virus; dilution 1:8 of 0.005% (W/V)
  CPE inhibition: 23.1%
Influenza A virus; dilution 1:16 of 0.005% (W/V)
  CPE inhibition: 9.1%

Source: patent US20080108685A1, “Novel Use for Alpha Sympathomimetics Having a 2-Imidazoline Structure” (priority 2004, published 2008)
